Measurements: US8685924B2, “Preventives/remedies for stress urinary incontinence and method of screening the same” (Takeda Pharmaceutical Company Limited, priority 2004, dated 2014)

What was measured:
Assay type in all cases: in vivo, rat
[1] = system: urethane-anesthetized female rats; assay: Leak point pressure by intravesical pressure-clamp method (Example 6); settings: for leak point pressure after drug administration / leak point pressure before drug administration: i.v., mean ± SEM; for leak point pressure after drug administration: 10 min later; for leak point pressure before drug administration: baseline
Protocol: SD female rats (body weight 180-350 g) were anesthetized with urethane (Wako Pure Chemical Industries, Ltd.), and the spinal cord was transected at T8-9 level to eliminate the reflex voiding.
Halothane (Takeda Pharmaceutical Company Limited) anesthesia was added when necessary during operation. After laparotomy, the bladder neck was tied with a suture thread and then a catheter (PE-90, Clay Adams) was inserted into the bladder and secured with a ligature. The other end of the bladder catheter was connected to a pressure transducer and saline storage reservoir (60 ml syringe) via a three-way cock.
Changes in the intravesical pressure measured by a transducer were input in a computer via an amplifier (blood pressure amplification unit AP-641G; NIHON KODEN) and an analog-to-digital cinverter (MP-100; biopack) and recorded on a hard disc. The intravesical pressure was raised for 90 sec by setting the saline storage reservoir at a given height, and the presence or absence of saline leakage from the urethral orifice was observed. The intravesical pressure was raised every 2.5 cmH2O and, after 90 sec observation period, the intravesical pressure was once returned to 0 cmH2O, after which the next step was performed. The intravesical pressure at which the saline leakage from the urethral orifice was observed was taken as the leak point pressure. The measurement of the leak point pressure was repeated and the average of the final three measures was taken as the value before the drug administration. The drug was intravenously administered, and the leak point pressure was measured again 10 min later. The drug was dissolved in DMA-PEG400 (1:1), and administered at 0.5 ml/kg.

[2] = system: urethane-anesthetized female rats; assay: Leak point pressure by abdominal wall-electrically stimulating method, serotonin 5-HT receptor agonists (Example 3); settings: for leak point pressure after drug administration / leak point pressure increase / leak point pressure before drug administration: i.v., mean ± SEM; for leak point pressure before drug administration: baseline
Protocol: (§1) SD female rats (body weight 180-350 g) were anesthetized with urethane (Wako Pure Chemical Industries, Ltd.), and the spinal cord was transected at T8-9 level to eliminate the reflex voiding. In addition, the nerve to the iliococcygeus muscle/pubococcygeus muscle on the one side was transected. During operation, halothane (Takeda Pharmaceutical Company Limited) anesthesia was added when necessary. A catheter (PE-90, Clay Adams) was inserted into the bladder and secured with a ligature, and the incised part of each of the abdominal muscle and skin was closed with sutures. The abdominal skin near the diaphragm was incised at two left and right positions to newly expose the abdominal muscle. An Evans Blue dye (Merck) solution was injected into the bladder, and the bladder volume was adjusted to 0.2-0.3 ml. The bladder catheter was connected to a pressure transducer, and the signals of the transducer were sent to a computer via an amplifier (blood pressure amplification unit AP-641G; NIHON KOHDEN) and an analog-to-digital converter (BIOPAC; MP100), and recorded on a hard disc. The data were analyzed on a computer using software (BIOPAC; AcqKnowledge). The exposed abdominal muscle was electrostimulated using an electrostimulator (SEN-3301; NIHON KODEN) and an isolator (SS-202J; NIHON KODEN), and the presence or absence of incontinence from the meatus urethra was observed. The electrostimulation was applied at a voltage of 2.5-50 V, duration of 0.5 milisec, and frequency 50 Hz for 1 sec, thereby gradually increasing the intravesical pressure. The peak intravesical pressure during stimulation of the abdominal wall was measured and, of the trials with observed incontinence, the lowest peak intravesical pressure was defined as the leak point pressure. Serotonin 5-HT receptor agonist, WAY-161503 (5-HT2C receptor agonist), WAY-163909 (5-HT2C receptor agonist), DOI (5-HT2A/2B/2C receptor agonist), mCPP (5-HT2B/2C receptor partial agonist), eltoprazine (5-HT1A/1B/2C receptor partial agonist), 8-OH-DPAT (5-HT1A receptor agonist), sumatryptan (5-HT1B/1D receptor agonist) and BW723C86 (5-HT2B receptor agonist) were intravenously administered, and the leak point pressure was compared before and after the administration. DOI, mCPP and eltoprazine were dissolved in saline, and other drugs were dissolved in DMA/PEG400 (1:1), and they were intravenously administered at 1 ml/kg and 0.5 mg/kg, respectively. Depending on the experiment, RS-102221 (serotonin 5-HT2C receptor antagonist) or SB221284 (serotonin 5-HT2B/2C receptor antagonist) was intravenously administered 5 min before WAY-161503 or WAY-163909 administration, and an antagonistic effect against the WAY-161503 or WAY-163909-induced increment of the leak point pressure was examined. RS-102221 and SB221284 were both dissolved in DMA/PEG400 (1:1) and intravenously administered at 0.5 ml/kg.

[3] = system: urethane-anesthetized female rats; assay: Antagonism of the leak point pressure increase by WAY-161503 / WAY-163909, abdominal wall-electrically stimulating method (Example 3); settings: agonist 0.3 mg/kg, i.v., antagonist: solvent, mean ± SEM
Protocol: as §1

[4] = system: urethane-anesthetized female rats; assay: Leak point pressure by direct compressing of the bladder (Example 4); settings: for leak point pressure after drug administration / leak point pressure increase / leak point pressure before drug administration: i.v., mean ± SEM; for leak point pressure after drug administration: 20 min later; for leak point pressure before drug administration: baseline
Protocol: (§2) SD female rats (body weight 180-350 g) were anesthetized with urethane (Wako Pure Chemical Industries, Ltd.), and halothane (Takeda Pharmaceutical Company Limited) anesthesia was added when necessary during operation.
(§3) The spinal cord was transected at T8-9 level to eliminate the reflex voiding. The lower abdomen was incised in the median line, a catheter for intravesical pressure measurement (PE-90, Clay Adams) was inserted into the bladder and secured with a ligature, and the intravesical pressure was measured via a pressure transducer. Urine was emptized in advance by bilaterally pressing the bladder with two swabs, and a 0.1% Evans blue (Merck) solution (0.4 mL) was injected into the bladder. The bladder was gradually compressed bilaterally with two swabs, and the intravesical pressure upon saline leakage from the urethral orifice was measured and defined as a leak point pressure. The measurement of the leak point pressure was repeated, and the average value of the final five stable measures was taken as the value before drug administration. Thereafter, the drug was intravenously administered, the leak point pressure was measured again 20 min later, and the value after the drug administration was determined. DOI, mCPP and eltoprazine were dissolved in saline, and other drugs were dissolved in DMA/PEG400 (1:1), and intravenously administered at 1 ml/kg and 0.5 mg/kg, respectively. Depending on the experiment, RS-102221 or SB221284 (showing serotonin 5-HT2C receptor antagonist activity) was administered, 5 min later, WAY-161503 or WAY-163909 was administered, leak point pressure was measured 10 min later, and a competitive assay with the action of WAY-161503 or WAY-163909 was performed. RS-102221 and SB221284 were both dissolved in DMA/PEG400 (1:1), and intravenously administered at 0.5 ml/kg.

[5] = system: urethane-anesthetized female rats; assay: Antagonism of the leak point pressure increase by WAY-161503 / WAY-163909, direct bladder compression method (Example 4); settings: agonist 0.3 mg/kg, i.v., antagonist: solvent, mean ± SEM
Protocol: as §2, §3

[6] = system: urethane-anesthetized female rats; assay: Leak point pressure by abdominal wall electrostimulation, rats with nerve to iliococcygeus/pubococcygeus muscle transected on one side (Example 2); settings: for leak point pressure after drug administration / leak point pressure increase / leak point pressure before drug administration: i.v., mean ± SEM; for leak point pressure before drug administration: baseline
Protocol: SD female rats (body weight 180-350 g) were anesthetized with urethane (Wako Pure Chemical Industries, Ltd.), and the spinal cord was cut at T8-9 level to eliminate the reflex voiding. In addition, the nerve to the iliococcygeus muscle/pubococcygeus muscle on the one side was transected. During operation, halothane (Takeda Pharmaceutical Company Limited) anesthesia was added when necessary. A catheter (PE-90, Clay Adams) was inserted into the bladder and secured with a ligature, and the incised part of each of the abdominal muscle and skin was closed with sutures. The abdominal skin near the diaphragm was incised at two left and right positions to newly expose the abdominal muscle. An Evans Blue dye (Merck) solution was injected into the bladder, and the bladder volume was adjusted to 0.2-0.3 ml. The bladder catheter was connected to a pressure transducer, and the signals of the transducer were sent to a computer via an amplifier (blood pressure amplification unit AP-641G; NIHON KOHDEN) and an analog-to-digital converter (BIOPAC; MP100), and recorded on a hard disc. The data were analyzed on a computer using software (BIOPAC; AcqKnowledge). The exposed abdominal muscle was electrostimulated using an electrostimulator (SEN-3301; NIHON KODEN) and an isolator (SS-202J; NIHON KODEN), and the presence or absence of incontinence from the urethral orifice was observed. The electrostimulation was applied at a voltage of 3-50 V, duration of 0.05-0.5 milisec, and frequency 50 Hz for 1 sec, thereby gradually increasing the intravesical pressure. The peak intravesical pressure during stimulation of the abdominal wall was measured and, of the trials with observed incontinence, the lowest peak intravesical pressure was defined as the leak point pressure. The leak point pressure was compared before and after the duloxetine and midodrine administration. Duloxetine was dissolved in […] (DMA)/polyethylene glycol 400 (PEG400) (1:1), and intravenously administered at 0.5 ml/kg. Midodrine (hydrochloride, Sigma) was dissolved in saline and intravenously administered at 1 ml/kg.

SMILES: C[C@]12CCC(=O)C[C@@H]1CC[C@@H]1[C@@H]2CC[C@]2(C)[C@@H](O)CC[C@@H]12 [DHT, dihydrotestosterone]
- leak point pressure after drug administration ([1]; 0.3 mg/kg): 35.5 ± 3.9 cmH2O
- leak point pressure after drug administration ([1]; 1 mg/kg): 41.1 ± 3.4 cmH2O
- leak point pressure after drug administration ([1]; 3 mg/kg): 36.9 ± 2.1 cmH2O
- leak point pressure before drug administration ([1]; dose group 0.3 mg/kg): 32.1 ± 3.9 cmH2O
- leak point pressure before drug administration ([1]; dose group 1 mg/kg): 35.7 ± 3.1 cmH2O
- leak point pressure before drug administration ([1]; dose group 3 mg/kg): 30.5 ± 2.2 cmH2O
- effect on leak point pressure ([1]; intravesical pressure-clamp method): increased the leak point pressure

SMILES: c1cc2c3c(c1)[C@H]1CCC[C@H]1N3CCNC2 [WAY-163909]
- leak point pressure after drug administration ([2]; 0.03 mg/kg): 43.0 ± 6.3 cmH2O
- leak point pressure increase ([2]; 0.03 mg/kg): 3.5 ± 3.1 cmH2O
- leak point pressure after drug administration ([2]; 0.1 mg/kg): 55.5 ± 1.8 cmH2O
- leak point pressure increase ([2]; 0.1 mg/kg): 11.1 ± 3.0 cmH2O
- leak point pressure after drug administration ([2]; 0.3 mg/kg): 55.9 ± 8.5 cmH2O
- leak point pressure increase ([2]; 0.3 mg/kg): 14.4 ± 3.9 cmH2O
- leak point pressure after drug administration ([2]; 1 mg/kg): 67.1 ± 5.2 cmH2O
- leak point pressure increase ([2]; 1 mg/kg): 24.0 ± 3.1 cmH2O
- leak point pressure before drug administration ([2]; dose group 0.03 mg/kg): 39.5 ± 4.3 cmH2O
- leak point pressure before drug administration ([2]; dose group 0.1 mg/kg): 44.4 ± 4.5 cmH2O
- leak point pressure before drug administration ([2]; dose group 0.3 mg/kg): 41.6 ± 6.0 cmH2O
- leak point pressure before drug administration ([2]; dose group 1 mg/kg): 43.1 ± 3.4 cmH2O
- dose at which a significant effect on the leak point pressure was afforded ([2]; intravenous administration): not less than 0.1 mg/kg
- effect on leak point pressure ([2]; intravenous administration): dose-dependently increased the leak point pressure
- leak point pressure after drug administration [3]: 57.6 ± 4.5 cmH2O
- leak point pressure increase [3]: 13.7 ± 2.2 cmH2O
- leak point pressure before drug administration ([3]; baseline): 43.9 ± 4.3 cmH2O
- leak point pressure after drug administration ([4]; 0.03 mg/kg): 73.3 ± 3.9 cmH2O
- leak point pressure increase ([4]; 0.03 mg/kg): 6.6 ± 2.2 cmH2O
- leak point pressure after drug administration ([4]; 0.1 mg/kg): 76.0 ± 2.7 cmH2O
- leak point pressure increase ([4]; 0.1 mg/kg): 11.8 ± 2.0 cmH2O
- leak point pressure after drug administration ([4]; 0.3 mg/kg): 69.9 ± 3.5 cmH2O
- leak point pressure increase ([4]; 0.3 mg/kg): 17.0 ± 1.8 cmH2O
- leak point pressure after drug administration ([4]; 1 mg/kg): 78.7 ± 5.7 cmH2O
- leak point pressure increase ([4]; 1 mg/kg): 20.4 ± 4.0 cmH2O
- leak point pressure after drug administration ([4]; 3 mg/kg): 78.7 ± 4.7 cmH2O
- leak point pressure increase ([4]; 3 mg/kg): 26.0 ± 3.5 cmH2O
- leak point pressure before drug administration ([4]; dose group 0.03 mg/kg): 66.6 ± 5.1 cmH2O
- leak point pressure before drug administration ([4]; dose group 0.1 mg/kg): 64.2 ± 1.3 cmH2O
- leak point pressure before drug administration ([4]; dose group 0.3 mg/kg): 52.9 ± 3.6 cmH2O
- leak point pressure before drug administration ([4]; dose group 1 mg/kg): 58.4 ± 2.3 cmH2O
- leak point pressure before drug administration ([4]; dose group 3 mg/kg): 52.7 ± 1.4 cmH2O
- effect on leak point pressure ([4]; intravenous administration): dose-dependently increased the leak point pressure
- leak point pressure after drug administration [5]: 77.6 ± 3.8 cmH2O
- leak point pressure increase [5]: 15.0 ± 1.1 cmH2O
- leak point pressure before drug administration ([5]; baseline): 62.6 ± 4.2 cmH2O

SMILES: COc1ccc(OC)c(C(O)CNC(=O)CN)c1 (centres unmarked) [midodrine]
- leak point pressure after drug administration ([6]; 3 mg/kg): 39.5 ± 7.5 cmH2O
- leak point pressure increase ([6]; 3 mg/kg): 3.3 ± 4.0 cmH2O
- leak point pressure after drug administration ([6]; 10 mg/kg): 45.1 ± 3.8 cmH2O
- leak point pressure increase ([6]; 10 mg/kg): 6.1 ± 1.4 cmH2O
- leak point pressure before drug administration ([6]; dose group 3 mg/kg): 36.2 ± 4.8 cmH2O
- leak point pressure before drug administration ([6]; dose group 10 mg/kg): 38.9 ± 4.5 cmH2O
- effect on leak point pressure, comparison before and after administration ([6]; intravenously administered): significant increase in the leak point pressure
